# Assay results reported in patent US10272080B2, “Selective dopamine D4 receptor agonists for treatment of working memory deficits” (priority 2013, dated 2019).
# Assays:
# [1] = test system: PNE mice; experiment: Y-maze spontaneous alternation assay in prenatal nicotine exposure (PNE) mice; format: in vivo, mice (C57/B6); conditions: for changes in spontaneous alternations in PNE mice (Y-maze): PNE mice only, FIG. 6, N=8-9; for spontaneous alternations in the PNE mice, comparison of methylphenidate and PD 168077: FIG. 10, n=9-10 per group
# Experimental: (§1) A prenatal nicotine exposure (PNE) mouse model to screen for drugs that alleviate the symptoms of ADHD and associated working memory deficits is developed.^13,14 In this model, adult female C57/B6 mice are exposed to nicotine (100 μg/ml nicotine and 2% saccharin in drinking water, pH 7.2) starting 4-6 weeks prior to mating with drug-naïve male mice, and throughout their pregnancies. Two groups of age- and bodyweight-matched female mice are used as controls. In the saccharin-only (SAC) control group, mice were exposed to saccharin alone (2% saccharin in drinking water, pH 7.2), and mice in the plain drinking water (WATER) control group were exposed to drinking water without any additives. On the day the mice littered, the litter size was standardized to contain 6-8 offspring (4 males and 4 females, whenever possible). Within 48 hours of birth offspring from the PNE, SAC and WATER groups were removed from their biological mothers and cross fostered to drug-naïve nursing dams. At the age of 90 days (postnatal day 90; P90), male offspring from each group were used in experimental analyses.
# (§2) On postnatal day 90 (P90), a Y-maze assay is used to examine changes in spontaneous alternation in the PNE mouse model.
# In additional experiments, saline, selective D1 receptor agonist (A-77636), selective D2/D3 receptor agonist (LY 171555), and selective D4 receptor agonist (PD 168077) are administered to the PNE and SAC mice followed with the assay of spontaneous alternations using the Y-maze.
# Methylphenidate, the classic stimulant treatment for ADHD, is examined for its efficacy in alleviating working memory deficits in the PNE mice. It is disclosed that methylphenidate increases extracellular dopamine in the frontal cortex of mice.^1,14 In the example of the present invention, saline or a therapeutic equivalent dose of methylphenidate^18 is administered to PNE and SAC mice. The PNE and SAC mice administered saline or a therapeutic equivalent dose of methylphenidate are assayed for spontaneous alternations in the Y-maze.
# [2] = test system: SAC mice; experiment: Y-maze spontaneous alternation assay in saccharin-only (SAC) control mice; format: in vivo, mice (C57/B6)
# Experimental: as §1
# On postnatal day 90 (P90), a Y-maze assay is used to examine changes in spontaneous alternation in the PNE mouse model. […]
# [3] = test system: drug naïve mice; experiment: Y-maze spontaneous alternation in drug naïve (WATER group) mice with pharmacological blockade of the D4 receptor; format: in vivo, mice (C57/B6); conditions: drug naïve mice given D4 antagonist L 745087, Panel B of FIG. 7
# Experimental: as §1, §2
# [4] = test system: dopamine D4 receptor; experiment: GTPγS binding assay, D4 receptor activity in frontal cortical membrane preparations after methylphenidate treatment; format: biochemical, mice; conditions: FIG. 9
# Experimental: Following the Y maze assay, GTPγS receptor binding assay is performed to examine the dopamine receptor signaling in mice of different groups and therefore to determine which dopamine subtypes are activated. GTPγS binding assay is used to measure agonist-induced dopamine receptor-G-protein coupling in membrane preparations obtained from specific brain regions such as the frontal cortex.^17 This assay uses pharmacological compounds that selectively activate each receptor subtype. Since compounds selective for each of the 5 dopamine receptor subtypes are not available yet, testing is limited to assaying activities of the D2/D3 and D4 receptor only. In this assay, a D2 receptor agonist LY 171555 and a selective D4R agonist PD 168077, both in 30 μM, are used to exam the activities of D2/D3 receptor and D4 receptor, respectively.
# D2/D3 and D4 receptor activities are also analyzed using GTPγS binding assays with frontal cortical membrane preparations from PNE and SAC mice following the methylphenidate treatment. Increases are found in D4 agonist-induced G-protein coupling in the frontal cortices of PNE mice following the methylphenidate treatment, compared to saline treatment (Panel A, FIG. 9). […]
# [5] = test system: dopamine D2/D3 receptors; experiment: GTPγS binding assay, D2/D3 receptor activity in frontal cortical membrane preparations after methylphenidate treatment; format: biochemical; conditions: PNE or SAC mice after methylphenidate treatment, FIG. 9
# Experimental: D2/D3 and D4 receptor activities are also analyzed using GTPγS binding assays with frontal cortical membrane preparations from PNE and SAC mice following the methylphenidate treatment. […] Mean±SEM, n=10-11 per group.
structure (smiles),measurement,setting,value
NC[C@@H]1O[C@H](C23CC4CC(CC(C4)C2)C3)Cc2c1ccc(O)c2O [A-77636],changes in spontaneous alternations in PNE mice (Y-maze),[1],neither the D1 nor the D2/D3 agonist produces significant changes
CCCN1CCC[C@@H]2Cc3n[nH]cc3C[C@H]21 [LY 171555],changes in spontaneous alternations in PNE mice (Y-maze),[1],neither the D1 nor the D2/D3 agonist produces significant changes
"Cc1cccc(C(=O)NCN2CCN(c3ccccc3C#N)CC2)c1 [PD 168077, N-([4-(2-cyanophenyl)piperazin-1-yl]methyl)-3-methylbenzamide]","spontaneous alternations in the PNE mice, comparison of methylphenidate and PD 168077",[1],greater than that of MPH
same,working memory in prenatal nicotine exposure mouse models,[1]; PD 168077 about 10 mg per kilogram body weight,shows improvement in working memory
same,working memory in prenatal nicotine exposure mouse models,[1]; PD 168077 about 20 mg per kilogram body weight,shows greater improvement in working memory
same,difference in spontaneous alternations between the PNE group and the SAC group after administration,"[1]; after PD 168077 administration, FIG. 5",no statistically significant difference
same,spontaneous alternations in the PNE mice (Y-maze),"[1]; dose from about 10 mg/kg to about 20 mg/kg, FIG. 5",produces improvement in spontaneous alternations in the PNE mice in a dose dependent manner
same,change in spontaneous alternations in the SAC group (Y-maze),"[2]; 20 mg/kg, FIG. 5",the change is not significant
same,effect on L 745087 antagonist-induced decrease in spontaneous alternations,[3],abolishes the antagonist-induced decreases in spontaneous alternations in a dose-dependent manner
COC(=O)C(c1ccccc1)C1CCCCN1 (stereo not shown) [methylphenidate],"spontaneous alternations in the PNE mice, comparison of methylphenidate and PD 168077",[1],increase spontaneous alternations
same,"spontaneous alternation in PNE mice (Y-maze), Mean±SEM","[1]; single oral 0.75 mg/kg about 30 minutes before the Y maze assay, saline about 48.0±2.2, FIG. 8",about 57.1±1.8
same,difference in spontaneous alternations between methylphenidate-exposed PNE mice and saline-exposed SAC control mice,"[1]; single oral 0.75 mg/kg, FIG. 8",no longer a significant difference
same,spontaneous alternations in the SAC control group (Y-maze),"[2]; single oral 0.75 mg/kg, FIG. 8",no significant effect
same,"activity of D4 receptor in the prefrontal cortex (D4 agonist-induced G-protein coupling), Mean±SEM","[4]; MPH treated PNE mice, saline treated about 92.0±3.5",about 131.6±11.6
same,D4 receptor activity in the SAC group,[4]; SAC mice receiving methylphenidate treatment,no significant change
same,D2/D3 receptor coupling to G-protein in the frontal cortices,[5],does not produce significant alterations
